Assay results as given in ChEMBL document CHEMBL1131109, “Modeling RNA-ligand interactions: the Rev-binding element RNA-aminoglycoside complex” (1998).
Values after ≈ are worked out from the molar mass of the structure shown.

tested on: Human rhinovirus sp.; assay: Compound was tested for minimum inhibitory concentration against human rhinovirus 14 (HRV14); type: functional

Row | Structure (SMILES) | MIC
1 | Cc1cc(CCCCCOc2ccc(C3=NCCO3)cc2Cl)on1 | 2.4 µM (≈ 0.837 µg/mL)
2 | Cc1cc(CCCCCCCOc2ccc(C3=NC[C@H](C)O3)cc2)on1 | 0.4 µM (≈ 0.143 µg/mL)
3 | Cc1cc(CCCCCOc2ccc(C3=NC[C@@H](C)O3)cc2)on1 | 0.6 µM (≈ 0.197 µg/mL)
4 | Cc1cc(CCCCCCCOc2ccc(C3=NC[C@@H](C)O3)cc2Cl)on1 | 0.2 µM (≈ 0.0782 µg/mL)
5 | Cc1cc(CCCCCOc2ccc(C3=NCCO3)cc2)on1 | 0.5 µM (≈ 0.157 µg/mL)
6 | Cc1cc(CCCCCCCOc2ccc(C3=NC[C@@H](C)O3)cc2)on1 | 0.03 µM (≈ 0.0107 µg/mL)
7 | CC[C@@H]1CN=C(c2ccc(OCCCCCCCc3cc(C)no3)cc2)O1 | 0.02 µM (≈ 0.00741 µg/mL)
8 | Cc1cc(CCCCCCCOc2ccc(C3=NCCO3)cc2)on1 [DISOXARIL] | 0.6 µM (≈ 0.205 µg/mL)

tested on: Nucleic Acid; assay: Compound was tested for the inhibition of Rev-RBE RNA complex formation; type: functional

Row | Structure (SMILES) | MIC
9 | CNC1C(O)C(OC2C(N)CC(N)C(OC3OC(CN)CCC3N)C2O)OCC1(C)O (stereo not drawn) | 100 µM (≈ 45 µg/mL)
10 | NC[C@H]1O[C@H](O[C@H]2[C@H](O[C@@H]3O[C@H](CO)[C@@H](O)[C@H]3O)[C@@H](O)[C@H](N)C[C@@H]2N)[C@H](N)[C@@H](O)[C@@H]1O | 100 µM (≈ 45.4 µg/mL)
11 | NC[C@H]1O[C@H](O[C@H]2[C@H](O)[C@@H](O[C@H]3O[C@H](CO)[C@@H](O)[C@H](N)[C@H]3O)[C@H](N)C[C@@H]2N)[C@H](N)[C@@H](O)[C@@H]1O | 100 µM (≈ 48.4 µg/mL)
12 | NC[C@H]1O[C@H](O[C@H]2[C@H](O)[C@@H](O[C@H]3O[C@H](CO)[C@@H](O)[C@H](N)[C@H]3O)[C@H](N)C[C@@H]2N)[C@H](N)C[C@@H]1O | 10 µM (≈ 4.68 µg/mL)
13 | NC[C@@H]1O[C@H](O[C@H]2[C@@H](O)[C@H](O[C@@H]3[C@@H](O)[C@H](N)C[C@H](N)[C@H]3O[C@H]3O[C@H](CO)[C@@H](O)[C@H](O)[C@H]3N)O[C@@H]2CO)[C@H](N)[C@@H](O)[C@@H]1O | > 100 µM
14 | NC[C@@H]1O[C@H](O[C@H]2[C@@H](O)[C@H](O[C@@H]3[C@@H](O)[C@H](N)C[C@H](N)[C@H]3O[C@H]3O[C@H](CN)[C@@H](O)[C@H](O)[C@H]3N)O[C@@H]2CO)[C@H](N)[C@@H](O)[C@@H]1O | 1 µM (≈ 0.615 µg/mL)
15 | NC[C@@H]1O[C@@H](O[C@H]2[C@H](O)[C@@H](O[C@H]3O[C@H](CO)[C@@H](O)[C@H](N)[C@H]3O)[C@H](N)C[C@@H]2N)[C@@H](O)[C@H](O)[C@H]1O | > 100 µM
16 | CN[C@@H]1[C@@H](O)[C@@H](O[C@@H]2[C@@H](O)[C@H](O[C@H]3OC(CN)=CC[C@H]3N)[C@@H](N)C[C@H]2N)OC[C@]1(C)O | > 100 µM
17 | NC[C@H]1O[C@H](O[C@H]2[C@H](O)[C@@H](O)[C@H](N)C[C@@H]2N)[C@H](N)[C@@H](O)[C@@H]1O | > 100 µM
18 | NC[C@@H]1O[C@H](O[C@H]2[C@@H](O)[C@H](O[C@@H]3[C@@H](O)[C@H](N)C[C@H](N)[C@H]3O[C@H]3O[C@H](CO)[C@@H](O)C[C@H]3N)O[C@@H]2CO)[C@H](N)[C@@H](O)[C@@H]1O[C@H]1O[C@H](CO)[C@@H](O)[C@H](O)[C@@H]1O | 10 µM (≈ 7.62 µg/mL)
